Assays:
[1] = biological target: Tyrosine-protein phosphatase non-receptor type 1, PTP1B (Homo sapiens) (UniProt P18031); assay: Inhibition of human PTP1B protein expressed in insect High5 cells by Z-LYTE kinase assay; details: concentration not given here
[2] = biological target: T1, Protein deacetylase HDAC6 (Homo sapiens) (UniProt Q9UBN7); assay: Inhibition of full-length recombinant human HDAC6 expressed in insect High5 cells using Boc-Lys(-acetyl)-AMC as substrate incubated for 3 hrs; set-up: concentration or dose not given beside the values; details: concentration not given here
T1 sequence (whole entry): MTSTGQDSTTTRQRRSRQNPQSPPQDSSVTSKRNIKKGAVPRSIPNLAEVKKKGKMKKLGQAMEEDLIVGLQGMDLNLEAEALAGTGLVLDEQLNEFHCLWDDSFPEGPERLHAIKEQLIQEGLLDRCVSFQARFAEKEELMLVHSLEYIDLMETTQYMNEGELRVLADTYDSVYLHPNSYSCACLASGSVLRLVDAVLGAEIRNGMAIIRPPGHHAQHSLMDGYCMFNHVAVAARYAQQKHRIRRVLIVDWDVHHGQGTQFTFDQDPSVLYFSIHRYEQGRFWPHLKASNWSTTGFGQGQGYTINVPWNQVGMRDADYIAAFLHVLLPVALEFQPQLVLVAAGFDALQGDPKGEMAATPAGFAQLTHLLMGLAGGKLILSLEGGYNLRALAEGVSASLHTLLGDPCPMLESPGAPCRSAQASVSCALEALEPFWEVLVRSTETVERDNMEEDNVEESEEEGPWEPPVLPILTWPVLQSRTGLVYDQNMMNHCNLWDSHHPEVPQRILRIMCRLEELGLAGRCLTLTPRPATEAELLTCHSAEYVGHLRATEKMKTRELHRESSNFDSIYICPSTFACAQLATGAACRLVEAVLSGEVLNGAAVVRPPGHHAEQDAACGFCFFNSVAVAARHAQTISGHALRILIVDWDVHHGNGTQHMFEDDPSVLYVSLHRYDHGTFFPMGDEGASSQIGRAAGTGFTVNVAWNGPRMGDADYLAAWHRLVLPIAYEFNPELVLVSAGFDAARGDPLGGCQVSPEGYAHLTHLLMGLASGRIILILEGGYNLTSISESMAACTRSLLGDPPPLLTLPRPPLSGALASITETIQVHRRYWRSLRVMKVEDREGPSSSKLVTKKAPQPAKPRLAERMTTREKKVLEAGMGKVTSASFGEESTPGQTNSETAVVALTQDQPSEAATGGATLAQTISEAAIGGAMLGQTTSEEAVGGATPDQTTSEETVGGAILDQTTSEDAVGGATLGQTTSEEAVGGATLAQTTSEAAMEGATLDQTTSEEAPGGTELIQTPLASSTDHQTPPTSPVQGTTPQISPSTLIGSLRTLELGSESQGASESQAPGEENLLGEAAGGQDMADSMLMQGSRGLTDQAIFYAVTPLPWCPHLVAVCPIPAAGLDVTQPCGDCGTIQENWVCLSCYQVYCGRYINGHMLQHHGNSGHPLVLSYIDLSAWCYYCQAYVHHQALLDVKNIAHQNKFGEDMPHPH

[3] = biological target: T2, Tyrosine-protein phosphatase non-receptor type 1 (Homo sapiens) (UniProt P18031); assay: Inhibition of PTP1B (unknown origin) using pNPP as substrate at 20 ug/ml measured for 3 mins by colorimetric assay
T2 sequence (whole entry): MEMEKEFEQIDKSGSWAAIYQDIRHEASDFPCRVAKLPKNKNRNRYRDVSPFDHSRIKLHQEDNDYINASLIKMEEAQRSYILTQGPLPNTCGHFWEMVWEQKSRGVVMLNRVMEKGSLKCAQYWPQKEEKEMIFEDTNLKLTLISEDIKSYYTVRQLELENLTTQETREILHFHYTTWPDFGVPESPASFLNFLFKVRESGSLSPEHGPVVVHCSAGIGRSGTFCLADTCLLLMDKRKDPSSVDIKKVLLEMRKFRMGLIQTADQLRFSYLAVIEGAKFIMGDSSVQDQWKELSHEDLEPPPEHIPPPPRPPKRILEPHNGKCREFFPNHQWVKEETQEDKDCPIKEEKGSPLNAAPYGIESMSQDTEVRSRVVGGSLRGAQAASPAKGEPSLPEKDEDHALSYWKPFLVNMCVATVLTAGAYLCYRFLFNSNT

[4] = biological target: T3, Aurora kinase A (Homo sapiens) (UniProt O14965); assay: Inhibition of aurora kinase A (unknown origin) incubated for 60 mins by fluorescence analysis
T3 sequence (whole entry): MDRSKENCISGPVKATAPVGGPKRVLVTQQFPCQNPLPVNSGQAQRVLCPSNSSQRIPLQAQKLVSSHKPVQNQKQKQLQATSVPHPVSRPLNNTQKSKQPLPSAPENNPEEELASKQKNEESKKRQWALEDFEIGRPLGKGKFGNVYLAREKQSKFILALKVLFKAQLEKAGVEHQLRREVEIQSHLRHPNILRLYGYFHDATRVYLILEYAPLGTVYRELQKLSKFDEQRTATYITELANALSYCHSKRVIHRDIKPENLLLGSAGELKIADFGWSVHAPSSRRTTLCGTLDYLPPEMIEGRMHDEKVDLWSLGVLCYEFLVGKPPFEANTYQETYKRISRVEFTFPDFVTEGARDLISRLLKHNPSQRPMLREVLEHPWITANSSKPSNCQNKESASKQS

SMILES | inhibition [2] [%] | further results
COC(=O)[C@@H]1C[C@@]23C(=O)[C@H]4[C@H](O)[C@H]5N(C[C@@H](CCC6=C2[C@@H]1CC6)[C@]53C)C[C@H]4C | < 10 | –
C[C@@H]1CN2C[C@H]3CC[C@H](O)[C@@H]4C(CCO)=C(C(=O)O)C[C@@]45C(=O)[C@H]1C[C@@H]2[C@@]35C | < 10 | –
COC(=O)[C@@H]1C[C@@]23C(=O)[C@H]4C[C@H]5N(C[C@@H](C[C@H](O)C6=C2[C@@H]1CC6)[C@]53C)C[C@H]4C | < 10 | –
COC(=O)[C@@H]1C[C@@]23C(=O)[C@H]4C[C@H]5N(C[C@@H](C[C@@H](O)C6=C2[C@@H]1CC6)[C@]53C)C[C@H]4C | < 10 | –
COC(=O)C1=C2CCC3=C2[C@@]2(C1)C(=O)[C@H]1C[C@@]4(O)N(C[C@@H](CC3)[C@@]24C)C[C@H]1C | < 10 | inhibition [4]: > 30%
COC(=O)[C@@H]1C[C@@]23C(=O)[C@H]4C[C@H]5N(C[C@H]4C)C[C@@H]([C@H](O)CC4=C2[C@@H]1CC4)[C@]53C | < 10 | –
COC(=O)C1=C2C[C@H](O)C3=C2[C@@]2(C1)C(=O)[C@H]1C[C@H]4N(C[C@@H](CC3)[C@]42C)C[C@H]1C | < 10 | inhibition [3]: 40%
COC(=O)[C@@H]1C[C@@]23C(=O)[C@H]4C[C@H]5N(C[C@H]4C)C[C@@H]([C@@H](O)CC4=C2[C@@H]1CC4)[C@]53C | < 10 | –
COC(=O)[C@@H]1C[C@@]23C(=O)[C@H]4C[C@H]5N(C[C@@H](CCC6=C2[C@@H]1C[C@H]6O)[C@]53C)C[C@H]4C | < 10 | –

The next lines start with results.

inhibition [2] [%] | SMILES | further results
< 10 | C[C@@H]1CN2C[C@H]3CC[C@@H]4C(=O)C=C5CC[C@@]6(C(=O)[C@H]1C[C@@H]2[C@@]36C)[C@@]54O | inhibition [1]: 44%; inhibition [3]: 40%
< 10 | C[C@@H]1CN2C[C@H]3CC[C@]4(O)C[C@H](O)C5=C4[C@@]4(CC5)C(=O)[C@H]1C[C@@H]2[C@@]34C | –
< 10 | C[C@@H]1CN2C[C@H]3CC[C@H](O)[C@@H]4C5=C(C[C@@]46C(=O)[C@H]1C[C@@H]2[C@@]36C)C(=O)OCC5 | –
< 10 | C[C@@H]1CN2C[C@H]3CCC4=C5C(=CC[C@@]56C(=O)[C@H]1C[C@@H]2[C@@]36C)[C@@H](O)C4 | –
